The test system of the experiment is Escherichia coli ATCC 25922. The experiment is described as follows: Etest strip MIC, sample deposited by smearing with a filtration sampling tool along two axes. The experiment is classed as cell-based. The following applies: smear deposition, incubated at 35° C., shadowgraphy images from 3 h 30; visual examination at 6 h 30 confirms. The text has this: A third method of implementation of the invention is illustrated by FIGS. 11a, 11b and 12. In this method, the sample is deposited by smearing on the surface of the culture medium (e.g. agar in a Petri dish with a diameter greater than or equal to 9 cm) by means of a sampling tool such as described in the international application published under the number WO2012/083150. Such an integrated device makes it possible to carry out one or more filtration steps and also to transfer a liquid sample. Said device comprises a tubular portion, one of the ends of which is covered with a filtration material such as a membrane, said filtration material being arranged outside this end and covering it totally. The other end of the tubular portion is able to be connected to a suction or dispensing means such as a vacuum pump. The benefit of using such a tool especially being able to estimate the MIC of a sample originating from a positive blood culture bottle, that is to say one which has a result confirming the presence of microorganisms after a given incubation time. For this purpose, the sample may especially be prepared by taking off a volume of the positive blood culture, carrying out a step of lysis, for example chemical lysis, of the blood cells of the volume taken off, then by carrying out filtration of the lysed volume by suction at the surface of a membrane. […]

Consider gentamicin, for which the minimum inhibitory concentration was determined as 1.5 µg/mL.

Values taken from patent publication US10870876B2, “Method for detecting a presence or absence of at least one first zone of inhibition” (BIOMÉRIEUX, priority 2015, dated 2020).
